# Biological target: T1, MAP3K2 (MEKK2) (Homo sapiens, UniProt Q9Y2U5)
# T1 construct: purchased Thermo Fisher Scientific (Life Technologies) SelectScreen
# Assay: SelectScreen LanthaScreen
# Type: binding
# Details: read-out: % displacement
# In short: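 SelectScreen broad panel; activity (Z'LYTE, Adapta) plus binding formats. ATP: Km app for CSF1R Z'LYTE; 10 for CAMK1 Adapta. Readout = % per kinase.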
# T1 sequence (Q9Y2U5 whole entry): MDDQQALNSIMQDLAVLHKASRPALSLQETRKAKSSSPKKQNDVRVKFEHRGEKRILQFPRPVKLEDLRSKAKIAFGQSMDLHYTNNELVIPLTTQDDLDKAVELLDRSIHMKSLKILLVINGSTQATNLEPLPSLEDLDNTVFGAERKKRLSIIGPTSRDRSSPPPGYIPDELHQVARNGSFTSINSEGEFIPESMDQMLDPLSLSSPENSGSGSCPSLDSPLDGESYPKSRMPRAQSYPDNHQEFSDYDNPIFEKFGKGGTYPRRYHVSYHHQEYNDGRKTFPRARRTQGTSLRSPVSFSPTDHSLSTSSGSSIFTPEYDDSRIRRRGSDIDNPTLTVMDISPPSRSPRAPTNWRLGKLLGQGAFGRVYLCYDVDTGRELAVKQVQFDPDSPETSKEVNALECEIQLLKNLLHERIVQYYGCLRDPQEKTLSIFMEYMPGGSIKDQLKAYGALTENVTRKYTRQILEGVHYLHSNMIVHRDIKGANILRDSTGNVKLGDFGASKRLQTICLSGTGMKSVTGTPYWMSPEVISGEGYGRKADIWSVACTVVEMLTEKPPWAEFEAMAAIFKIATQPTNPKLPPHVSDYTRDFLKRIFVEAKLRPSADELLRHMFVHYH
structure (smiles),measurement,value
CN(C(=O)CN1CCOCC1)c1ccc2sc3c(-c4cccc5c(=O)cc(N6CC7CCC(C6)O7)oc45)cccc3c2c1 [NU5455],inhibition at 1 µM,0.1%
